Test results as given in article PMC10156173, “GUN4 appeared early in cyanobacterial evolution” (PNAS Nexus, 2023).

How the values were obtained:
[1] = target: T1, CrGUN4 (Chlamydomonas GUN4) (Chlamydomonas reinhardtii, UniProt A8I5N5); assay: absorption spectrum of purified protein co-expressed with PCB biosynthesis in E. coli; assay type: binding; settings: TKKG buffer (25 mM TES-KOH pH 7.8, 100 mM KCl, 10% glycerol); peaks at 368 and 674 nm
T1 construct: gene CHLRE_05g246800v5; in-frame His-tagged fusion in pET28a; expressed in E. coli C41 with pKT271 (PCB biosynthesis); Ni-NTA purified

[2] = target: T2, CrGUN4 (Chlamydomonas GUN4) (Chlamydomonas reinhardtii, UniProt A8I5N5, N219G); assay: as above; settings: TKKG buffer (25 mM TES-KOH pH 7.8, 100 mM KCl, 10% glycerol); no PCB binding detected
T2 construct: gene CHLRE_05g246800v5; in-frame His-tagged fusion in pET28a; expressed in E. coli C41 with pKT271 (PCB biosynthesis); Ni-NTA purified
T2 sequence (A8I5N5 entry or part of it N219G): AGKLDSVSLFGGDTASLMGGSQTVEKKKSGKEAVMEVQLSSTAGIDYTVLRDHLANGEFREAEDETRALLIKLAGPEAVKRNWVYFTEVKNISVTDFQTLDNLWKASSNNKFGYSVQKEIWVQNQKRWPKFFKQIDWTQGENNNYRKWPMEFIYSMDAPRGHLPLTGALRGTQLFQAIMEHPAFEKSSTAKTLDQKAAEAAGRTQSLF

T1 sequence (A8I5N5 entry or part of it): as the sequence (A8I5N5 entry or part of it N219G) above, with G167N counted along it

With `CC=C1C(=CC2=NC(=Cc3[nH]c(C=C4NC(=O)C(CC)=C4C)c(C)c3CCC(=O)O)C(CCC(=O)O)=C2C)NC(=O)[C@@H]1C` [PCB] the “absorption spectrum of purified protein co-expressed with PCB biosynthesis in E.” value [1] was “Wild-type CrGUN4 contains a small amount of bilin as shown by characteristic peaks” and the “bilin absorbance peaks (368 and 674 nm)” value [2] was “these peaks are absent in the N219G variant”.
